In this assay the test system is C57BL/6J inbred strain female mice. The assay can be described thus: Survival after 8 Gy whole body γ-irradiation, intraperitoneal dosing 4 hours before or after (Example 4). Type of assay: in vivo. The note with it: 10 mg/kg 4 hr before Radiation 8 Gy. On the procedure: β-lapachone is prepared at 10 mg/ml in 40% hydroxypropyl-beta-cyclodextrin (HPBCD).
C57BL/6J inbred strain female mice (4-5 weeks old) are used. Animals are maintained in a climate-controlled animal facility.
Animals are injected with different concentrations of β-lapachone (20 and 40 mg/kg body weight) intraperitoneally 4 hours before or after irradiation.
Whole body irradiation of animals with 8 Gy of γ-rays is carried out in air at room temperature in a gamma chamber (Gammacell 40 Exactor), at a dose-rate of 1.05 Gy/min. This radiation dose is within the range of equivalent human exposures predicted in many scenarios of radiologic or nuclear terrorist attack.
Mice are divided into the following groups (each Group comprises four mice receiving identical treatment):
Group II: Mice are injected with β-lapachone 20 mg/kg body weight 4 hours before radiation.
Group III: Mice are injected with β-lapachone 40 mg/kg body weight 4 hours before radiation.
Group IV: Mice are injected with β-lapachone 20 mg/kg body weight 4 hours after radiation.
Group V: Mice are injected with β-lapachone 40 mg/kg body weight 4 hours after radiation.
Group VI: Mice are injected with amifostine 10 mg/kg body weight 4 hours before radiation.
Animals are irradiated with 8 Gy at 1.05 Gy/min dose-rate. After irradiation mice are returned to their cage and observed on a regular basis. Exposure to γ-rays causes lethality in animals. Importantly, treatment with β-lapachone, especially at a level of 40 mg/kg prior to irradiation, diminishes the death rate.

Here are results for 1 molecule from patent US7649013B2, “Methods of protecting against radiation injury” (priority 2003, dated 2010).

Take `NCCCNCCSP(=O)(O)O` [Amifostine, reference compound]: the “Median survival time” value is 12 days. Moreover, the “No. of animals surviving at 20 days post-irradiation” value (4 animals) amounted to 0. For the setting “20 days”, the “Death rate (%)” value is reported as 100%. The “Median survival time in days” value (listed as amifostine) is listed as “little or no effect”.
